Assay results reported in PMC7822065, “Discovery of indole-3-butyric acid derivatives as potent histone deacetylase inhibitors” (Journal of Enzyme Inhibition and Medicinal Chemistry, 2021).

Experiments:
U937 cells = test: MTT antiproliferative assay, U937; details: Homo sapiens, U-937, 48 h, read-out: U937 IC50
Description: (§2) The stock solutions of tested compounds were diluted with culture medium. […] Then, the cells were treated with compound sample at various concentrations for 48 h. Afterward, 20 MTT working solution (5 mg/ml) was added to each well and incubated for another 4 h. After incubation, the medium formed from MTT was extracted by adding DMSO (200 µl). The optical density (OD) at 490 nm and 630 nm were measured by Universal Microplate Spectrophotometer. […] The IC50 values were calculated with Origin 7.5 software (Originlab Corporation, Northampton, MA), and standard deviations of the IC50 values were obtained through at least 3 independent experiments.

Colo205 cells = test: MTT antiproliferative assay, Colo205; assay type: cell-based; details: Homo sapiens, COLO 205, colon carcinoma
Description: (§1) The stock solutions of tested compounds were diluted with culture medium. […] Then, the cells were treated with compound sample at various concentrations for 48 h. Afterward, […] working solution (5 mg/ml) was added to each well and incubated for another 4 h. After incubation, the […] formed from MTT was extracted by adding DMSO (200 µl). The optical density (OD) at 490 nm and 630 nm were measured by Universal Microplate Spectrophotometer. […] The IC50 values were calculated with Origin 7.5 software (Originlab Corporation, Northampton, MA), and standard deviations of the IC50 values were obtained through at least 3 independent experiments.

A2780 cells = test: MTT antiproliferative assay, A2780; assay type: cell-based
Description: The stock solutions of tested compounds were diluted with culture medium. Briefly, the cells were seeded into each well of 96-well plate, which were incubated at 37 °C, 5% CO2 until confluency 90–95%. Then, the cells were treated with compound sample at various concentrations for 48 h. Afterward, […] working solution (5 mg/ml) was added to each well and incubated for another 4 h. After incubation, the […] formed from MTT was extracted by adding DMSO (200 µl). The optical density (OD) at 490 nm and 630 nm were measured by Universal Microplate Spectrophotometer. […] The IC50 values were calculated with Origin 7.5 software (Originlab Corporation, Northampton, MA), and standard deviations of the IC50 values were obtained through at least 3 independent experiments.
A series of tumour cell lines including the lung cancer A549, Calu-3, SPC-A-1, H322, H1299, breast cancer MDA-MB-231, MCF-7, MDA-MB-468, colon carcinoma LoVo, Colo205, ovarian cancer A2780, SKOV3, gastric cancer MKN45, pancreatic cancer PNAC-1, leukemic K562, and multiple myeloma OPM2 cells were cultured for the antiproliferative assay of active compound I13. In the present study, molecule I13 could inhibit the growth of both solid and haematologic tumour cell lines (Table 4). […]. The antiproliferative activity of molecule I13 was considered to be restricted by the poor enzyme inhibitory selectivity. Enhancement of selectivity could be a useful strategy to improve the anticancer activity of this group of HDACIs.

Calu-3 cells = test: MTT antiproliferative assay, Calu-3; assay type: cell-based; details: Homo sapiens, lung cancer
Description: as §1

OPM2 cells = test: MTT antiproliferative assay, OPM2; assay type: cell-based; details: Homo sapiens, OPM-2, multiple myeloma
Description: as §1

HDAC2 = HDAC2 (Homo sapiens, UniProt Q92769); test: In vitro HDACs inhibitory assay, recombinant HDAC2
Description: (§3) All of the HDAC enzymes were purchased from BPS Bioscience (San Diego, CA). Briefly, 20 μl of HeLa nucleus extract or recombinant HDAC enzyme solution was mixed with various concentrations of tested compound (20 μl). The mixture was incubated at 30 °C for 1 h (for the time-dependent assay, the mixture was incubated for 15, 30, 60, and 90 min, respectively), then 10 μl of fluorogenic substrate (Boc-Lys (acetyl)-AMC (3 mM) for HDAC1, 2, 3, and 6, Boc-Lys (trifluoroacetyl)-AMC (3 mM) for HDAC 4, 7, 8, and 9) was added. After incubation at 30 °C for 2 h, the catalytic reaction was stopped by addition of 10 μl of developer containing trypsin and trichostatin A (TSA). After 30 min, fluorescence intensity was measured using a microplate reader at excitation and emission wavelengths of 360 and 460 nm, respectively. The inhibition ratios were calculated from the fluorescence intensity readings of tested wells relative to those of control wells, and the IC50 curves and values were determined by GraphPad Prism 6.0 software (La Jolla, CA).

SKOV3 cells = test: MTT antiproliferative assay, SKOV3; assay type: cell-based; details: Homo sapiens, SK-OV-3, ovarian cancer
Description: as §1

SPC-A-1 cells = test: MTT antiproliferative assay, SPC-A-1; assay type: cell-based; details: SPCA1, lung cancer
Description: as §1

MKN45 cells = test: MTT antiproliferative assay, MKN45; assay type: cell-based; details: Homo sapiens, MKN-45, gastric cancer
Description: as §1

Water solubility = assay type: physicochemical
H1299 cells = test: MTT antiproliferative assay, H1299; assay type: cell-based; details: Homo sapiens, NCI-H1299, lung cancer
Description: as §1

K562 cells = test: MTT antiproliferative assay, K562; assay type: cell-based; details: Homo sapiens, leukemia
Description: as §1

HepG2 cells [1] = test: MTT antiproliferative assay, HepG2
Description: as §2

U266 cells = test: MTT antiproliferative assay, U266
Description: as §2
To evaluate the antiproliferative activity of hydroxamic acid containing molecules, MTT assays were performed using U937, U266, and HepG2 cell lines.

HDAC1 = HDAC1 (Homo sapiens, UniProt Q13547); test: In vitro HDACs inhibitory assay, recombinant HDAC1
Description: as §3

HDAC7 = HDAC7 (Homo sapiens, UniProt Q8WUI4); test: In vitro HDACs inhibitory assay, recombinant HDAC7
Description: as §3

HDAC8 = HDAC8 (Homo sapiens, UniProt Q9BY41); test: In vitro HDACs inhibitory assay, recombinant HDAC8
Description: as §3

MDA-MB-468 cells = test: MTT antiproliferative assay, MDA-MB-468; assay type: cell-based; details: Homo sapiens, breast carcinoma
Description: as §1

HDAC4 = HDAC4 (Homo sapiens, UniProt P56524); test: In vitro HDACs inhibitory assay, recombinant HDAC4
Description: as §3

LoVo cells = test: MTT antiproliferative assay, LoVo; assay type: cell-based; details: Homo sapiens, colon carcinoma
Description: as §1

HDAC9 = HDAC9 (Homo sapiens, UniProt Q9UKV0); test: In vitro HDACs inhibitory assay, recombinant HDAC9
Description: as §3

MCF-7 cells = test: MTT antiproliferative assay, MCF-7; assay type: cell-based; details: Homo sapiens, MCF7, breast carcinoma
Description: as §1

MDA-MB-231 cells = test: MTT antiproliferative assay, MDA-MB-231; assay type: cell-based; details: Homo sapiens, breast carcinoma
Description: as §1

HDAC3 = HDAC3 (Homo sapiens, UniProt O15379); test: In vitro HDACs inhibitory assay, recombinant HDAC3
Description: as §3

[2] = system: HDACs (HeLa nucleus extract containing a mixture of HDAC isoforms); test: HDAC inhibitory assay with HeLa nucleus extract; details: at the concentration of 1 µM
HepG2 cells [3] = test: Annexin V/PI cell apoptosis assay (flow cytometry); details: annexin V-FITC/PI
Description: After 10 min of incubation, 1 µl PI was added to each sample and mixed gently. After incubation at room temperature for another 20 min in the dark, cells were subjected to flow cytometer (CytoFLEX, Beckman Coulter, Brea, CA).

H322 cells = test: MTT antiproliferative assay, H322; assay type: cell-based; details: NCI-H322, lung cancer
Description: as §1

HDAC6 = HDAC6 (Homo sapiens, UniProt Q9UBN7); test: In vitro HDACs inhibitory assay, recombinant HDAC6
Description: as §3

A549 cells = test: MTT antiproliferative assay, A549; assay type: cell-based; details: Homo sapiens, lung cancer
Description: as §1

PNAC-1 cells = test: MTT antiproliferative assay, PNAC-1; assay type: cell-based
Description: as §1

Sequence of HDAC4 (P56524 whole entry): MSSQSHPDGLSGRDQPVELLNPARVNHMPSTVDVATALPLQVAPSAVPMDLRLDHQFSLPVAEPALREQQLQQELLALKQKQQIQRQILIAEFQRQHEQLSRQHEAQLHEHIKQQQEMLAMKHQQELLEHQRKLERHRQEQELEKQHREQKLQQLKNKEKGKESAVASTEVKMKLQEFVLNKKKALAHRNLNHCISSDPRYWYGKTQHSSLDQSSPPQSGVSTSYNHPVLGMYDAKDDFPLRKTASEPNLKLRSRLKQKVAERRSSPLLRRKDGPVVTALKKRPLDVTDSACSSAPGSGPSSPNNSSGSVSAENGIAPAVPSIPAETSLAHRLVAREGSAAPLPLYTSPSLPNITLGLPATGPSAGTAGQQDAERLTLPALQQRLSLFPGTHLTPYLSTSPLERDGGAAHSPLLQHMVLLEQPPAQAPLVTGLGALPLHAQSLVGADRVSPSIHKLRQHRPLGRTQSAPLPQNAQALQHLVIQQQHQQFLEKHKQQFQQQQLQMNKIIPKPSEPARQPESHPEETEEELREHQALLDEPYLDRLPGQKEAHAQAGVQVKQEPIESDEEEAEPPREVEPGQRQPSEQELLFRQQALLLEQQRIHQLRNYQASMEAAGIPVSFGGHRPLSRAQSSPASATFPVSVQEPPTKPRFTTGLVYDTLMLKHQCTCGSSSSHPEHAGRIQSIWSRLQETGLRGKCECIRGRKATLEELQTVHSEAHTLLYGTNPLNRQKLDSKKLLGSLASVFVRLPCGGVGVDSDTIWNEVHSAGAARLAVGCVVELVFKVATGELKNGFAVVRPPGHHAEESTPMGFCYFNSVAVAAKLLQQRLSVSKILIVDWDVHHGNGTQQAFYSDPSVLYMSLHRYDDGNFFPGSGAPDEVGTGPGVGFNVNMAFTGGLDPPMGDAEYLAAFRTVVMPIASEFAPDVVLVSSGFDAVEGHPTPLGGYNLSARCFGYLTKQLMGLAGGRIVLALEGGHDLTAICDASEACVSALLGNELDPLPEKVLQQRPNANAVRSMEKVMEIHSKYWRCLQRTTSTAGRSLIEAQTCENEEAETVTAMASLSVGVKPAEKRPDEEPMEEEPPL
Sequence of HDAC7 (Q8WUI4 whole entry): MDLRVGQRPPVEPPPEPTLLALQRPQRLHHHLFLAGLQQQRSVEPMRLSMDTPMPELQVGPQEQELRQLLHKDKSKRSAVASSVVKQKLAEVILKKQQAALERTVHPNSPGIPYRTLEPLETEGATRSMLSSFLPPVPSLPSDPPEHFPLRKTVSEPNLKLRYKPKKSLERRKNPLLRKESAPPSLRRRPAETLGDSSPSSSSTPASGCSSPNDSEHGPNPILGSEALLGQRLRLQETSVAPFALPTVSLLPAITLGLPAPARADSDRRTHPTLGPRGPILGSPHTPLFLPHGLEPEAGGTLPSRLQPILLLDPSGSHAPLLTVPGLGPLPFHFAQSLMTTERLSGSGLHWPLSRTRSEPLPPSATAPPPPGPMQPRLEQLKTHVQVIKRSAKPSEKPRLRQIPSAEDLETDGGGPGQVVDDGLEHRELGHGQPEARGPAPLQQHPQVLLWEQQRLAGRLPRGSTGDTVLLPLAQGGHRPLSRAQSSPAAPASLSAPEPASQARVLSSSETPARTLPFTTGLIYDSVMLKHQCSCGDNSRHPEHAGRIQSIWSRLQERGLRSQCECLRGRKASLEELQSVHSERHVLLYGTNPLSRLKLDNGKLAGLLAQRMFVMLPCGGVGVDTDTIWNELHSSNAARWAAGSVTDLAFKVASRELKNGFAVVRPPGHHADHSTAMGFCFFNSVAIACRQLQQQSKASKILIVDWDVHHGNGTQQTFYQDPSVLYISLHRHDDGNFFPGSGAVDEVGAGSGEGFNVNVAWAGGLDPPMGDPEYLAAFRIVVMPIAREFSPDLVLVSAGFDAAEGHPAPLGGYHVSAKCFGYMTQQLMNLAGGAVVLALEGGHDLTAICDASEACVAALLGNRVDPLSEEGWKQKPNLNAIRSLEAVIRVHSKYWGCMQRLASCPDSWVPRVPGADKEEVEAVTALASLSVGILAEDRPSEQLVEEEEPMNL
Sequence of HDAC1 (Q13547 whole entry): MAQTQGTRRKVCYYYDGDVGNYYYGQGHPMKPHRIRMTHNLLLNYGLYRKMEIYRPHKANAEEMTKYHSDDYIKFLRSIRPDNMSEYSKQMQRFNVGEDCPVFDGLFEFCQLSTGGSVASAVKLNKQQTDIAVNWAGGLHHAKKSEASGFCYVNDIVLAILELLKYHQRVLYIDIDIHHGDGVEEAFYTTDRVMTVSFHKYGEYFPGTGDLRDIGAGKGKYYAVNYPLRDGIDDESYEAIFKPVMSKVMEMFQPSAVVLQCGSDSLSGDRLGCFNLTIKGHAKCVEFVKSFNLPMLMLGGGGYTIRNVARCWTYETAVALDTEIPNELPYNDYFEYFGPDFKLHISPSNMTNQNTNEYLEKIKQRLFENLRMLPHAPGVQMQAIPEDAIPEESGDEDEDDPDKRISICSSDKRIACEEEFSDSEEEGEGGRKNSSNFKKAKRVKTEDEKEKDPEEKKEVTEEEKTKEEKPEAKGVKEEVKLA
Sequence of HDAC2 (Q92769 whole entry): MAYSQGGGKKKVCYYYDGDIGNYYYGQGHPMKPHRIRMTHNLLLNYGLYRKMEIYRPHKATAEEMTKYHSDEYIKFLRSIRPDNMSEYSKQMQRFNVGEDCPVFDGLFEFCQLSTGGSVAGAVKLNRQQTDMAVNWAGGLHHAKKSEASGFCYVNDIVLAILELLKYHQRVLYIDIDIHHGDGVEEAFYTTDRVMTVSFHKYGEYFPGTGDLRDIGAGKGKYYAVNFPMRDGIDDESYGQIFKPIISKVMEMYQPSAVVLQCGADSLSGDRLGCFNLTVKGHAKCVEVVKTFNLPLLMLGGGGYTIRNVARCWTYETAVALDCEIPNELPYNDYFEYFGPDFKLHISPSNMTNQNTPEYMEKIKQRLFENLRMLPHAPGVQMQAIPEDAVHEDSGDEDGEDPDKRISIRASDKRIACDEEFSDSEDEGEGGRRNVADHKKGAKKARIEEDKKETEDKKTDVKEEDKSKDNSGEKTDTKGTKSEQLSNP
Sequence of HDAC9 (Q9UKV0 whole entry): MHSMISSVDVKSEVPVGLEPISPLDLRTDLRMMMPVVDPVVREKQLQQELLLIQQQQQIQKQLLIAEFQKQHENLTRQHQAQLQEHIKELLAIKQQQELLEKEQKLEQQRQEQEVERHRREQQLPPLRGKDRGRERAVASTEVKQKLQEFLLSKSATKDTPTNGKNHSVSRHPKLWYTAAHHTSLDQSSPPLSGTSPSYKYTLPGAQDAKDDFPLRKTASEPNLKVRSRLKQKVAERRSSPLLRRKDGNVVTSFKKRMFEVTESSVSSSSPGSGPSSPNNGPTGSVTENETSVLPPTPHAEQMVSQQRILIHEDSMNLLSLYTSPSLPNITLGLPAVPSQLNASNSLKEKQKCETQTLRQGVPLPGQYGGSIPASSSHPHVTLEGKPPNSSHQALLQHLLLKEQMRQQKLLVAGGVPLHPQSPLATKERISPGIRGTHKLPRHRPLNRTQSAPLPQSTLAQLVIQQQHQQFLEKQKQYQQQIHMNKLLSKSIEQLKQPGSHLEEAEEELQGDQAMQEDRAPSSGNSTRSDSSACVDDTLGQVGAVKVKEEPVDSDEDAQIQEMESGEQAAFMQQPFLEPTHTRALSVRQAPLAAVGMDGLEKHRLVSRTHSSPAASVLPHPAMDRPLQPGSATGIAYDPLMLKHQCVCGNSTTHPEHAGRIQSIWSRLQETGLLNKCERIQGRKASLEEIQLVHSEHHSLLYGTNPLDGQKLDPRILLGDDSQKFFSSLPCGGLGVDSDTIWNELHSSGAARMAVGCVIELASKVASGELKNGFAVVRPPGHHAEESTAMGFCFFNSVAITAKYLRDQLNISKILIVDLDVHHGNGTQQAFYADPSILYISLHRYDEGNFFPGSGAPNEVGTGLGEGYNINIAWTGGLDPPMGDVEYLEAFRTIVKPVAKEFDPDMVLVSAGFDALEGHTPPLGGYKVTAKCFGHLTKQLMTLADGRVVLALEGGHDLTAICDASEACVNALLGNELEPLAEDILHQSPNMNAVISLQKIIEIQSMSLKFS
Sequence of HDAC3 (O15379 whole entry, canonical isoform): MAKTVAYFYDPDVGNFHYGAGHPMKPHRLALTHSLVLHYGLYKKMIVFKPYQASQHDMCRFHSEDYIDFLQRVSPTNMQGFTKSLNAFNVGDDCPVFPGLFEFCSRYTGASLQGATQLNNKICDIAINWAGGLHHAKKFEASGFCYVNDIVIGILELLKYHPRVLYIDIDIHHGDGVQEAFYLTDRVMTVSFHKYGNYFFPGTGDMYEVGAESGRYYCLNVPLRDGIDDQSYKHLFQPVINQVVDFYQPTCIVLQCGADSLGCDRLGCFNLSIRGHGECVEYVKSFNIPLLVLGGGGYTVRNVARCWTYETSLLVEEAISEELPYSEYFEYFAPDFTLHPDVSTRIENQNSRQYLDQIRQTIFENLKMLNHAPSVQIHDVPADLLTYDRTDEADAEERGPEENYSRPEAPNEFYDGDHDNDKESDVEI
Sequence of HDAC3 (Q9Y618 395-489 partner limits assumed): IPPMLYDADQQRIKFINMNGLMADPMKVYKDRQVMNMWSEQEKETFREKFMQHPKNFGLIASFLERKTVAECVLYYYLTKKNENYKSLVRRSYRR
Sequence of HDAC8 (Q9BY41 whole entry): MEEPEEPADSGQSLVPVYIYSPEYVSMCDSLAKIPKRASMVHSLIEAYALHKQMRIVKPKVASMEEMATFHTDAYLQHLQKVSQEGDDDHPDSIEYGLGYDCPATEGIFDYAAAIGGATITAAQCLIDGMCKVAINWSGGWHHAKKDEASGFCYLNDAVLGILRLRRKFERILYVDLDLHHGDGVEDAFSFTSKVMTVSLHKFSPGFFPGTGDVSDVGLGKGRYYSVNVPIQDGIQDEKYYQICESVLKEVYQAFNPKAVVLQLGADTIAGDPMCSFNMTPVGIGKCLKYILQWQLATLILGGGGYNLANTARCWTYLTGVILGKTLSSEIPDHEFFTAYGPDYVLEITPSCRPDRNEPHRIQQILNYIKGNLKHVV

Cn1cc(CCCC(=O)Nc2ccc(C(=O)NO)cc2)c2ccccc21 [Compound I13, 4-(4-(1-Methyl-1H-indol-3-yl)butanamido)-N-hydroxybenzamide]
IC50 (U937 cells): 930 ± 80 nM | IC50 (Colo205 cells): 2420 nM | IC50 (A2780 cells; Homo sapiens, A2780, ovarian cancer, MTT, read-out: A2780 IC50): 4600 nM | fold more active than SAHA, A2780 cells (A2780 cells; ratio of IC50 values): 5.9 fold | IC50 (Calu-3 cells): 1260 nM | IC50 (OPM2 cells): 230 nM | IC50 (HDAC2): 49.9 nM | IC50 (SKOV3 cells): 1440 nM | IC50 (SPC-A-1 cells): 810 nM | IC50 (MKN45 cells): 18200 nM | water solubility (Water solubility): good water solubility | IC50 (H1299 cells): 7670 nM | IC50 (K562 cells): 2870 nM | IC50 (HepG2 cells [1]; Homo sapiens, HepG2, 48 h, read-out: HepG2 IC50): 1850 ± 310 nM | fold more active than SAHA, HepG2 cells (HepG2 cells [1]; ratio of IC50 values): 4.7 fold | IC50 (U266 cells; Homo sapiens, U-266, 48 h, read-out: U266 IC50): 160 ± 40 nM | fold more active than SAHA, U266 cells (U266 cells; ratio of IC50 values): 5.5 fold | IC50 (HDAC1): 13.9 nM | IC50 (HDAC7): 326 nM | IC50 (HDAC8): 284 nM | IC50 (MDA-MB-468 cells): 1340 nM | IC50 (HDAC4): > 5000 nM | IC50 (LoVo cells): 2190 nM | IC50 (HDAC9): > 5000 nM | IC50 (MCF-7 cells): 6340 nM | IC50 (MDA-MB-231 cells): 780 nM | IC50 (HDAC3): 12.1 nM | toxic signs in liver and spleen (HepG2 xenograft; 50 mg/kg/d intragastric, 16 days): no obvious toxic signs in liver and spleen were detected | tumour inhibitory ratio (HepG2 xenograft; 50 mg/kg/d intragastric, 16 days, HepG2 xenograft): 33.1% | mean weight of tumours (HepG2 xenograft; 50 mg/kg/d intragastric, 16 days, HepG2 xenograft, n = 7): 0.303 g | mice body weight loss (HepG2 xenograft; mouse, in vivo): No evidence of mice body weight (measured every two days) loss | HDACs, percentage inhibition rate (PIR) [2]: 82.19 ± 1.60% | ratio of apoptotic cells (HepG2 cells [3]; HepG2, 0.2 µM, 24 h): 11.56% | flow cytometry quadrant Q1-LL (HepG2 cells [3]; HepG2, 0.2 μM): 88.42% | flow cytometry quadrant Q1-LR (HepG2 cells [3]; HepG2, 0.2 μM): 6.12% | flow cytometry quadrant Q1-UL (HepG2 cells [3]; HepG2, 0.2 μM): 0.02% | flow cytometry quadrant Q1-UR (HepG2 cells [3]; HepG2, 0.2 μM): 5.44% | flow cytometry quadrant Q1-LL (HepG2 cells [3]; HepG2, 0.8 μM): 67.38% | flow cytometry quadrant Q1-LR (HepG2 cells [3]; HepG2, 0.8 μM): 21.27% | flow cytometry quadrant Q1-UL (HepG2 cells [3]; HepG2, 0.8 μM): 0.07% | flow cytometry quadrant Q1-UR (HepG2 cells [3]; HepG2, 0.8 μM): 11.28% | IC50 (H322 cells): 14900 nM | IC50 (HDAC6): 7.71 nM | IC50 (A549 cells): 3150 nM | IC50 (PNAC-1 cells; pancreatic cancer, MTT): 1170 nM | fold more active than SAHA, PNAC-1 cells (PNAC-1 cells; ratio of IC50 values): 5.6 fold
